Laboratory results published in the supplement of paper PMC10307832.

Compound: COc1nc(N)nc2c1ncn2[C@@H]1O[C@H](CO)[C@@H](O)[C@@H]1O [Nelarabine] + CC(=O)Nc1cccc(-n2c(=O)n(C3CC3)c(=O)c3c(Nc4ccc(I)cc4F)n(C)c(=O)c(C)c32)c1 [Trametinib] (partner 0.02 µM)
Assay: relative viability (nuclei count vs DMSO), 5 days (fraction); higher = more cells survive
Conditions: first compound 0.01 µM
Procedure, shortened: (§1)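 Medians of duplicate plates are given as relative viability. That measure is the nuclei count in treated wells divided by the count in vehicle wells. Counts were taken on 4× images of lung cancer cell lines in 1536-well plates, 5 days after pin-tool dosing the day after seeding with one drug alone or a fixed anchor-drug dose plus five library-drug doses (not always all listed) in √10 steps.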

| Cell Line | relative viability |
| --- | --- |
| NCI-H2023 | 0.721 |
| NCI-H2085 | 0.391 |
| NCI-H2087 | 0.181 |
| NCI-H2126 | 0.666 |
| NCI-H2228 | 0.575 |
| NCI-H2347 | 0.338 |
| NCI-H2405 | 0.642 |
| NCI-H3122 | 0.307 |
| PC-3 [JPC-3] | 0.753 |
| PC-14 | 0.894 |
| RERF-LC-KJ | 1.03 |

Same assay, conditions: first compound 0.03162 µM

| Cell Line | relative viability |
| --- | --- |
| NCI-H441 | 0.482 |
| NCI-H460 | 0.213 |
| NCI-H520 | 0.599 |
| NCI-H596 | 0.861 |
| NCI-H647 | 0.423 |
| NCI-H650 | 0.805 |
| NCI-H661 | 0.718 |
| NCI-H727 | 0.43 |
| NCI-H838 | 0.586 |
| NCI-H1355 | 0.343 |
| NCI-H1395 | 1.1 |
| NCI-H1437 | 0.582 |
| NCI-H1651 | 0.909 |
| NCI-H1666 | 1 |
| NCI-H1734 | 0.615 |
| NCI-H1755 | 0.777 |
| NCI-H1792 | 0.513 |

| Cell Line | relative viability |
| --- | --- |
| NCI-H1915 | 0.318 |
| NCI-H1944 | 0.443 |
| NCI-H1975 | 0.35 |
| NCI-H1993 | 0.48 |
| NCI-H2009 | 0.224 |
| NCI-H2023 | 0.61 |
| NCI-H2085 | 0.518 |
| NCI-H2087 | 0.167 |
| NCI-H2126 | 0.612 |
| NCI-H2228 | 0.469 |
| NCI-H2347 | 0.3 |
| NCI-H2405 | 0.612 |
| NCI-H3122 | 0.163 |
| PC-3 [JPC-3] | 0.808 |
| PC-14 | 0.87 |
| RERF-LC-KJ | 1 |

Same assay, conditions: first compound 0.1 µM

| Cell Line | relative viability |
| --- | --- |
| NCI-H441 | 0.469 |
| NCI-H460 | 0.0809 |
| NCI-H520 | 0.757 |
| NCI-H596 | 0.783 |
| NCI-H647 | 0.537 |
| NCI-H650 | 0.922 |
| NCI-H661 | 0.628 |
| NCI-H727 | 0.358 |
| NCI-H838 | 0.473 |
| NCI-H1355 | 0.43 |
| NCI-H1395 | 0.946 |
| NCI-H1437 | 0.484 |
| NCI-H1651 | 0.842 |
| NCI-H1666 | 0.738 |
| NCI-H1734 | 0.666 |
| NCI-H1755 | 0.753 |
| NCI-H1792 | 0.418 |

| Cell Line | relative viability |
| --- | --- |
| NCI-H1793 | 0.421 |
| NCI-H1915 | 0.284 |
| NCI-H1944 | 0.401 |
| NCI-H1975 | 0.36 |
| NCI-H1993 | 0.479 |
| NCI-H2009 | 0.215 |
| NCI-H2023 | 0.46 |
| NCI-H2085 | 0.514 |
| NCI-H2087 | 0.196 |
| NCI-H2126 | 0.599 |
| NCI-H2228 | 0.29 |
| NCI-H2347 | 0.307 |
| NCI-H2405 | 0.528 |
| PC-3 [JPC-3] | 0.683 |
| PC-14 | 0.766 |
| RERF-LC-KJ | 0.934 |

Same assay, conditions: first compound 0.3162 µM

| Cell Line | relative viability |
| --- | --- |
| NCI-H441 | 0.446 |
| NCI-H460 | 0.259 |
| NCI-H520 | 0.903 |
| NCI-H596 | 0.907 |
| NCI-H647 | 0.548 |
| NCI-H650 | 1.01 |
| NCI-H661 | 0.668 |
| NCI-H727 | 0.35 |
| NCI-H838 | 0.621 |
| NCI-H1355 | 0.346 |
| NCI-H1395 | 1.05 |
| NCI-H1437 | 0.64 |
| NCI-H1651 | 0.827 |
| NCI-H1666 | 0.839 |
| NCI-H1734 | 0.666 |
| NCI-H1755 | 0.692 |
| NCI-H1792 | 0.373 |

| Cell Line | relative viability |
| --- | --- |
| NCI-H1793 | 0.424 |
| NCI-H1915 | 0.299 |
| NCI-H1944 | 0.388 |
| NCI-H1975 | 0.396 |
| NCI-H1993 | 0.487 |
| NCI-H2009 | 0.287 |
| NCI-H2023 | 0.632 |
| NCI-H2085 | 0.612 |
| NCI-H2087 | 0.245 |
| NCI-H2126 | 0.52 |
| NCI-H2228 | 0.55 |
| NCI-H2347 | 0.304 |
| NCI-H2405 | 0.677 |
| NCI-H3122 | 0.23 |
| PC-3 [JPC-3] | 0.672 |
| PC-14 | 0.844 |
| RERF-LC-KJ | 0.986 |

Same assay, conditions: first compound 1 µM

| Cell Line | relative viability |
| --- | --- |
| NCI-H441 | 0.466 |
| NCI-H460 | 0.164 |
| NCI-H520 | 0.697 |
| NCI-H596 | 0.834 |
| NCI-H647 | 0.502 |
| NCI-H650 | 1.06 |
| NCI-H661 | 0.756 |
| NCI-H727 | 0.321 |
| NCI-H838 | 0.575 |
| NCI-H1355 | 0.477 |
| NCI-H1395 | 1.12 |
| NCI-H1437 | 0.581 |
| NCI-H1651 | 0.821 |
| NCI-H1666 | 0.859 |
| NCI-H1734 | 0.627 |
| NCI-H1755 | 0.836 |
| NCI-H1792 | 0.508 |

| Cell Line | relative viability |
| --- | --- |
| NCI-H1793 | 0.466 |
| NCI-H1915 | 0.305 |
| NCI-H1944 | 0.376 |
| NCI-H1975 | 0.381 |
| NCI-H1993 | 0.588 |
| NCI-H2009 | 0.266 |
| NCI-H2023 | 0.505 |
| NCI-H2085 | 0.544 |
| NCI-H2087 | 0.202 |
| NCI-H2126 | 0.538 |
| NCI-H2228 | 0.668 |
| NCI-H2347 | 0.27 |
| NCI-H2405 | 0.643 |
| NCI-H3122 | 0.237 |
| PC-3 [JPC-3] | 0.775 |
| PC-14 | 0.774 |
| RERF-LC-KJ | 0.862 |

Compound: COc1nc(N)nc2c1ncn2[C@@H]1O[C@H](CO)[C@@H](O)[C@@H]1O [Nelarabine] + CCNC(=O)c1noc(-c2cc(C(C)C)c(O)cc2O)c1-c1ccc(CN2CCOCC2)cc1 [Luminespib] (partner 0.01 µM)
Assay: as above
Conditions: first compound 0.01 µM
Procedure, shortened: as §1

| Cell Line | relative viability |
| --- | --- |
| NCI-H441 | 0.306 |
| NCI-H460 | 0.0293 |
| NCI-H520 | 0.252 |
| NCI-H596 | 1.04 |
| NCI-H647 | 0.177 |
| NCI-H650 | 0.857 |
| NCI-H661 | 1.04 |
| NCI-H727 | 0.305 |
| NCI-H838 | 0.316 |
| NCI-H1355 | 0.763 |
| NCI-H1395 | 0.666 |
| NCI-H1437 | 1.3 |
| NCI-H1651 | 1.01 |
| NCI-H1666 | 0.991 |
| NCI-H1734 | 0.193 |
